Assay results published in ChEMBL document CHEMBL5576124, “Discovery of an Exceptionally Orally Bioavailable and Potent HPK1 PROTAC with Enhancement of Antitumor Efficacy of Anti-PD-L1 Therapy” (J Med Chem, 2024).
Active and inactive are the calls of the source. No cut-off for these calls is given here.

What was measured:
[1] = Tmax in ICR mouse at 10 mg/kg,po measured upto 24 hrs by LC-MS analysis; format: ADME, organism-based; conditions: in vivo
[2] = Stability in mouse liver microsomes assessed as parent compound remaining; format: ADME, Microsome
[3] = Metabolic stability in mouse liver microsomes assessed as microsomal intrinsic clearance; format: ADME, Microsome; conditions: read-out: CLH
Jurkat [4] = test: Immunostimulatory activity in anti-CD3/CD28 induced human Jurkat cells assessed as increase in IL-2 release incubated for 24 hrs by ELISA; format: functional, cell-based
CT26 [5] = test: Antitumor activity against mouse CT26 cells implanted BALB/c mouse model assessed as tumor growth inhibition at 25 mg/kg,po administrated once daily for 15 days relative to control; format: functional; conditions: CT26, 360 h, time 15 day, read-out: TGI
CT26 [6] = test: Antitumor activity against mouse CT26 cells implanted BALB/c mouse model assessed as tumor growth inhibition at 25 mg/kg,po administrated once daily for 15 days in presence of anti-PD-L1 antibody relative to control; format: functional; conditions: CT26, 360 h, time 15 day, read-out: TGI
Jurkat [7] = test: Immunostimulatory activity in anti-CD3/CD28 induced human Jurkat cells assessed as upregulation of ERK phosphorylation by Western blotting analysis; format: functional, cell-based
[8] = Bioavailability in ICR mouse at 10 mg/kg,po or 1 mg/kg,iv measured upto 24 hrs by LC-MS analysis; format: ADME, organism-based; conditions: in vivo
[9] = Stability in human liver microsomes assessed as parent compound remaining measured after 5 mins; format: ADME, Microsome; conditions: read-out: Stability
[10] = Metabolic stability in mouse liver microsomes assessed as half life; format: ADME, Microsome
Jurkat [11] = test: Immunostimulatory activity in anti-CD3/CD28 induced human Jurkat cells assessed as downregulation of SLP76 expression by Western blotting analysis; format: functional, cell-based
Jurkat [12] = test: Immunostimulatory activity in anti-CD3/CD28 induced human Jurkat cells assessed as upregulation of JNK phosphorylation by Western blotting analysis; format: functional, cell-based
[13] = molecular target: T1, Protein cereblon/Mitogen-activated protein kinase kinase kinase kinase 1 (Homo sapiens, UniProt Q92918+Q96SW2); test: PROTAC activity at CRBN/HPK1 in human Jurkat cells assessed as degradation of HPK1 protein at 1 uM preincubated with 4-(2-(2,5-Dimethyl-1,2,3,4-tetrahydroisoquinolin-7-y1)-5H-pyrrolo[2,3-bipyrazin-7-y1)-N,N,2-trimethylbenzamide followed by compound addition incubated for 24 hrs by Western blotting analysis; format: cell-based
[14] = Cmax in ICR mouse at 10 mg/kg,po measured upto 24 hrs by LC-MS analysis; format: ADME, organism-based; conditions: in vivo
[15] = Stability in mouse liver microsomes assessed as parent compound remaining measured after 15 mins; format: ADME, Microsome; conditions: read-out: Stability
[16] = Half life in ICR mouse at 1 mg/kg,iv measured upto 24 hrs by LC-MS analysis; format: ADME, organism-based; conditions: in vivo
[17] = molecular target: T2, Mitogen-activated protein kinase kinase kinase kinase 3 (Homo sapiens, UniProt Q8IVH8); test: Inhibition of GLK (unknown origin)
T2 sequence (Q8IVH8 whole entry): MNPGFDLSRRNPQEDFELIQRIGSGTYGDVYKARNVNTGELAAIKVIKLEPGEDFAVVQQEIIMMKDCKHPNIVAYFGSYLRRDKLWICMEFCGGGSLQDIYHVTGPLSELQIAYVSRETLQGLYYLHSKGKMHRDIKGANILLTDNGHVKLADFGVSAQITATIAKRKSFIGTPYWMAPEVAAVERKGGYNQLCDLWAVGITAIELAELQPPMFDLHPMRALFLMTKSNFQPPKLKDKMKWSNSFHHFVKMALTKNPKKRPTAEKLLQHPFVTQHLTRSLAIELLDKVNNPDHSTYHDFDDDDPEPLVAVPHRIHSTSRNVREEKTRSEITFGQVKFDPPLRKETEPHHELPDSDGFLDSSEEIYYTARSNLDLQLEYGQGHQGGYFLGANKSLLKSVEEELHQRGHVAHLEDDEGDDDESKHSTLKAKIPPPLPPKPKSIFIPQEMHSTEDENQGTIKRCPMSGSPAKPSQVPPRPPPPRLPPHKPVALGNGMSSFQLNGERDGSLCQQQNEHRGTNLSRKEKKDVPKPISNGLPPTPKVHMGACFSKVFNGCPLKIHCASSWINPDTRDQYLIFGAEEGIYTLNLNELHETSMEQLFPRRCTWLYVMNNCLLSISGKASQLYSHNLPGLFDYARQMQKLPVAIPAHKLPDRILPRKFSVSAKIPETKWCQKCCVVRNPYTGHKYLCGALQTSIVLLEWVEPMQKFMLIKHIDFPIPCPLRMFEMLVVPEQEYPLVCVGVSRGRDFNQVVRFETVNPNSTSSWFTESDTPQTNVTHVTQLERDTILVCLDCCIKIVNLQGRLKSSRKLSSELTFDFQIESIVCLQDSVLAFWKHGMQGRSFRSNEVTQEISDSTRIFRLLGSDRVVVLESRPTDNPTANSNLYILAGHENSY

[18] = molecular target: Mitogen-activated protein kinase kinase kinase kinase 1 (Homo sapiens, UniProt Q92918); test: Inhibition of HPK1 (unknown origin)
[19] = Half life in ICR mouse at 10 mg/kg,po measured upto 24 hrs by LC-MS analysis; format: ADME, organism-based; conditions: in vivo
[20] = Half life in Sprague-Dawley rat at 10 mg/kg,po measured upto 24 hrs by LC-MS analysis; format: ADME, organism-based; conditions: in vivo
Jurkat [21] = test: Immunostimulatory activity in anti-CD3/CD28 induced human Jurkat cells assessed as upregulation of JNK expression by Western blotting analysis; format: functional, cell-based
[22] = molecular target: T1, Protein cereblon/Mitogen-activated protein kinase kinase kinase kinase 1; test: PROTAC activity at CRBN/HPK1 in human Jurkat cells assessed as maximal degradation of HPK1 protein at 1 uM incubated for 24 hrs by Western blotting analysis relative to control; format: cell-based

T1 sequence (Q92918 whole entry, looked up): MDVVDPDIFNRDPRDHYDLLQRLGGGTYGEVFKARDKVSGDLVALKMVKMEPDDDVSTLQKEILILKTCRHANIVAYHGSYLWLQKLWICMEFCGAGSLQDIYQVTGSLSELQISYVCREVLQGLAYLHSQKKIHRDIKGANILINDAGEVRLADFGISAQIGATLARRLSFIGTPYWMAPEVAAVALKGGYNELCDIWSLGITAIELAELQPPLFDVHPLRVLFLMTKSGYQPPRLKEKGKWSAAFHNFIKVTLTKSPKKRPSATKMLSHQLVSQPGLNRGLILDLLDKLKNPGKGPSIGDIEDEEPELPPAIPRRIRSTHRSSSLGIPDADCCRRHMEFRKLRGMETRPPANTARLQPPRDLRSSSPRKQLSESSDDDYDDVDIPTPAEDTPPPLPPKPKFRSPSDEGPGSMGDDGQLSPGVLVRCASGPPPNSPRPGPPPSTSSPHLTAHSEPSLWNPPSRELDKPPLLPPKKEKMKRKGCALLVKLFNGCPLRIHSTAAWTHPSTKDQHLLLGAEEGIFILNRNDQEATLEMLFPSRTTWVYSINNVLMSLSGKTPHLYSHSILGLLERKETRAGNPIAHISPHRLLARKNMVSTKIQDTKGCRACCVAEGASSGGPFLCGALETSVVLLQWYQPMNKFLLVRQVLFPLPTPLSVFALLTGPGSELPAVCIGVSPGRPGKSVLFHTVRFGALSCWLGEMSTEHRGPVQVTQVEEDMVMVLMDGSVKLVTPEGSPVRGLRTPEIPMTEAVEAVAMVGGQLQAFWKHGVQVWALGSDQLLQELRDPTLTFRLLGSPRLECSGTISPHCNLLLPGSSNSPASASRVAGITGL
T1 sequence (Q96SW2 whole entry, looked up): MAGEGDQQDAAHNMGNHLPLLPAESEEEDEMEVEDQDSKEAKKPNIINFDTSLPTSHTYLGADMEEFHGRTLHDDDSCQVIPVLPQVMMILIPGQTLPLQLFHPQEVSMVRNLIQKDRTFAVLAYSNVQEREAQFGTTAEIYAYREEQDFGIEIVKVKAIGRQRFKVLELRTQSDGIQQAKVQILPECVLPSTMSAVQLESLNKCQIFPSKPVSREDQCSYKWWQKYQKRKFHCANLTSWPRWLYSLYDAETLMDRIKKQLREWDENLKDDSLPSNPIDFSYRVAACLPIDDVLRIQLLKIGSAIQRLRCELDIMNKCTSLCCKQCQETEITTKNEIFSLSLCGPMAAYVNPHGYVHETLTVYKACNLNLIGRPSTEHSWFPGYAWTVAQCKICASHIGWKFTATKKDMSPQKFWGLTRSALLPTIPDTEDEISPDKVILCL
Chain of Mitogen-activated protein kinase kinase kinase kinase 1 (Q92918 whole entry): as the sequence (Q92918 whole entry, looked up) above

Tmax [1]: 4 h
Stability [2]: 100%
CLint scaled [3]: 16.6 mL/min/kg
bioavailability [8]: 81.7%
remaining at 5 min [9]: 96.5%
half-life [10]: 1.25 h
Activity [13]: Active
Cmax [14]: 10900 ng/mL
remaining at 0.25 h [15]: 85.5%
half-life [16]: 3.13 h
IC50 [17]: > 500 nM
IC50 [18]: 30.9 nM
half-life [19]: 4.33 h
half-life [20]: 6.58 h
Activity [22]: 100%
SMILES: Cc1cc(-c2c[nH]c3ncc(-c4ccc(C5CCN(C6CN(c7ccc8c(c7)C(=O)N(C7CCC(=O)NC7=O)C8=O)C6)CC5)cc4)nc23)ccc1C(=O)N(C)C (configuration not stated)
Activity (Jurkat [4]): Dose-Dependent Effect
inhibition in vivo at 25 mg/kg (CT26 [5]): 47.2%
inhibition in vivo at 25 mg/kg (CT26 [6]): 65.6%
Activity (Jurkat [7]): Active
Activity (Jurkat [11]): Active
Activity (Jurkat [12]): Active
Activity (Jurkat [21]): Active
